Measurements taken from the supplement of paper PMC10883282.

What was measured:
Experiment in all cases: relative viability vs DMSO control (72 h) (fraction); higher = more viable cells
SW982 = test system: SW982
In short: (§1)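 Densities for seeding sarcoma cell lines into 384-well plates were set to give 80–90% confluence. After 24 h, 2.5 µl of serially diluted compound from source plates of 10 mM to 0.0002 mM went in, and plates stayed 72 h at 37 °C in 5% CO2 with 0.1% DMSO vehicle and a 5 µM positive control. Percent growth from ATPLite readings, averaged over up to triplicate wells, served as relative viability, rescaled so 1 means full and 0 means none.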

A204 = test system: A204
In short: as §1

MES-SA = test system: MES-SA
In short: as §1

VA-ES-BJ = test system: VA-ES-BJ
In short: as §1

SK-ES-1 = test system: SK-ES-1
In short: as §1

CNC(=O)c1c(C)oc2cc(Oc3ncnc4cc(OC)c(OC)cc34)ccc12 [Fruquintinib]
relative viability
Settings	A204	MES-SA	SK-ES-1	SW982	VA-ES-BJ
0.00017 µM	1.06	0.96	1.01	1.03	1.05
0.00051 µM	1.09	0.975	1.07	1.03	1.02
0.00152 µM	1.05	0.943	1.04	1.04	1.03
0.00457 µM	1.05	0.935	1.07	1.02	1
0.01372 µM	1.06	0.947	1.06	1.03	0.997
0.04115 µM	0.999	0.9442	1.1	1.04	1.01
0.1235 µM	0.967	0.922	1.05	1.048	0.996
0.3704 µM	0.73	0.929	1	1.04	1.03
1.111 µM	0.409	0.9218	0.971	1.04	0.995
3.333 µM	0.32	0.855	0.951	0.992	0.953
10 µM	0.258	0.806	0.926	0.925	0.936

COc1cc2ncnc(Nc3ccc(F)c(Cl)c3)c2cc1OCCCN1CCOCC1 [Gefitinib]
relative viability
Settings	A204	MES-SA	SK-ES-1	SW982	VA-ES-BJ
0.00017 µM	1.06	0.97	0.989	0.997	1.05
0.00051 µM	1.08	0.948	0.988	1.01	1.05
0.00152 µM	1.09	0.959	1	1.01	1.074
0.00457 µM	1.06	0.952	1.01	1	1.04
0.01372 µM	1.05	0.937	0.9857	1	1.04
0.04115 µM	1.1	0.962	1	1.012	1.05
0.1235 µM	1.1	0.969	1.01	0.998	1.05
0.3704 µM	1.03	0.969	0.958	0.989	1.06
1.111 µM	1.04	0.925	0.864	0.957	1.06
3.333 µM	0.876	0.739	0.599	0.675	1.04
10 µM	0.448	0.4455	0.168	0.268	0.75

CCc1nc(C(N)=O)c(Nc2ccc(N3CCC(N4CCN(C)CC4)CC3)c(OC)c2)nc1NC1CCOCC1 [Gilteritinib]
relative viability
Settings	A204	MES-SA	SK-ES-1	SW982	VA-ES-BJ
60 pM	1.05	0.954	0.996	0.9618	0.988
0.00018 µM	1.01	0.936	1.03	0.996	0.986
0.00053 µM	1.04	0.921	1.07	0.978	0.993
0.0016 µM	1.04	0.922	1.01	0.967	1.02
0.0048 µM	1.02	0.904	0.979	0.988	1
0.014 µM	1.02	0.947	0.964	0.947	0.997
0.043 µM	1.03	0.904	0.932	0.945	1.04
0.13 µM	0.943	0.89	0.697	0.612	0.937
0.389 µM	0.742	0.76	0.208	0.277	0.713
1.167 µM	0.502	0.51	0.112	0.195	0.433
3.5 µM	0.385	0.393	0.119	0.2	0.3

O=S(=O)(c1cccc2c(O)nccc12)N1CCCNCC1 [Hydroxyfasudil]
relative viability
Settings	A204	MES-SA	SK-ES-1	SW982	VA-ES-BJ
0.00017 µM	1.08	0.981	1.09	1.02	1.07
0.00051 µM	1.1	0.973	1.09	1.05	1.1
0.00152 µM	1.12	0.93	1.06	1.05	1.11
0.00457 µM	1.1	0.962	1.05	1.081	1.08
0.01372 µM	1.11	0.944	1.07	1.05	1.07
0.04115 µM	1.11	0.92	1.1	1.06	1.061
0.1235 µM	1.11	0.96	1.06	1.073	1.06
0.3704 µM	1.06	0.942	1.08	1.06	1.09
1.111 µM	1.04	0.934	1.07	1.04	1.01
3.333 µM	1.05	0.879	1.04	1.041	1.01
10 µM	0.979	0.819	1.02	0.92	0.998

C#Cc1cccc(Nc2ncnc3cc4c(cc23)OCCOCCOCCO4)c1 [Icotinib]
relative viability
Settings	A204	MES-SA	SK-ES-1	SW982	VA-ES-BJ
0.00017 µM	1.07	0.972	1.03	1.01	1.09
0.00051 µM	1.08	0.945	1.06	1.03	1.1
0.00152 µM	1.11	0.958	1.06	1.04	1.1
0.00457 µM	1.13	0.937	1.01	1.03	1.06
0.01372 µM	1.071	0.936	1.073	1.049	1.08
0.04115 µM	1.12	0.952	1.08	1.06	1.07
0.1235 µM	1.09	0.952	1.068	1.06	1.08
0.3704 µM	1.07	0.922	1.07	1.05	1.08
1.111 µM	0.967	0.912	0.998	0.999	1.05
3.333 µM	0.947	0.869	1.01	0.9946	1.04
10 µM	0.877	0.8	0.934	0.977	1.01

CCN1CCN(c2ccc(Nc3cc(N(C)C(=O)Nc4c(Cl)c(OC)cc(OC)c4Cl)ncn3)cc2)CC1 [Infigratinib]
relative viability
Settings	A204	MES-SA	SK-ES-1	SW982	VA-ES-BJ
85 pM	1.08	0.933	1.03	1.01	1.03
0.000254 µM	1.08	0.94	1.07	1.07	1.048
0.00076 µM	1.08	0.927	1	1.02	1.03
0.00229 µM	1.05	0.928	1.06	1.05	1.04
0.00686 µM	0.964	0.929	1.03	1.05	1.04
0.02058 µM	0.825	0.869	1.01	1.05	0.977
0.0617 µM	0.676	0.846	0.971	1.07	1.01
0.1852 µM	0.569	0.733	0.929	1.061	0.982
0.5556 µM	0.559	0.696	0.797	0.98	0.949
1.6667 µM	0.527	0.556	0.559	0.78	0.8949
5 µM	0.408	0.412	0.373	0.732	0.871

CS(=O)(=O)CCNCc1ccc(-c2ccc3ncnc(Nc4ccc(OCc5cccc(F)c5)c(Cl)c4)c3c2)o1 [Lapatinib]
relative viability
Settings	A204	MES-SA	SK-ES-1	SW982	VA-ES-BJ
0.00017 µM	1.06	0.933	1.05	1.04	1.019
0.00051 µM	1.07	0.918	1.04	1.04	1.01
0.00152 µM	1.06	0.904	1.02	1.06	1.02
0.00457 µM	1.07	0.912	0.98	1.03	1.03
0.01372 µM	1.06	0.923	1.06	1.05	1.01
0.04115 µM	1.08	0.931	0.985	1.06	0.992
0.1235 µM	1.07	0.945	1.02	1.07	0.993
0.3704 µM	1.09	0.9335	1.02	1.09	0.979
1.111 µM	1.05	0.915	0.983	1.09	0.985
3.333 µM	0.701	0.683	0.772	0.968	0.927
10 µM	0.0212	0.0484	0.0529	0.0107	0.451

O=C1CCc2c(Oc3ccc4c(c3)[C@@H]3[C@H](O4)[C@H]3c3nc4cc(C(F)(F)F)ccc4[nH]3)ccnc2N1 [Lifirafenib]
relative viability
Settings	A204	MES-SA	SK-ES-1	SW982	VA-ES-BJ
0.00017 µM	1.1	0.948	1.01	1.04	1.037
0.00051 µM	1.12	0.952	1.04	1.03	1.039
0.00152 µM	1.12	0.954	1.068	1.055	1.046
0.00457 µM	1.104	0.955	1.05	1.05	1.03
0.01372 µM	1.1	0.961	1.09	1.02	1.03
0.04115 µM	1.11	0.974	1.07	1.02	1.04
0.1235 µM	1.1	0.985	1.06	1.05	1.09
0.3704 µM	0.781	0.992	1.08	1.03	1.108
1.111 µM	0.49	0.956	1.04	0.897	1.11
3.333 µM	0.38	0.792	0.867	0.757	1.09
10 µM	0.317	0.493	0.572	0.556	0.798

CNC(=O)c1cccc2cc(Oc3ccnc4cc(OCC5(N)CC5)c(OC)cc34)ccc12 [Lucitanib]
relative viability
Settings	A204	MES-SA	SK-ES-1	SW982	VA-ES-BJ
0.00017 µM	1.04	0.983	1.07	1.03	1.08
0.00051 µM	1.07	0.976	1.12	1.06	1.07
0.00152 µM	1.04	0.965	1.09	1.06	1.09
0.00457 µM	1.01	0.957	1.11	1.049	1.091
0.01372 µM	0.859	0.978	1.01	1.03	1.1
0.04115 µM	0.584	0.955	1.07	1.05	1.11
0.1235 µM	0.421	0.95	1	1.03	1.12
0.3704 µM	0.391	0.961	1.07	1.04	1.13
1.111 µM	0.265	0.813	1.01	1.03	1.16
3.333 µM	0.172	0.615	0.865	0.972	1.14
10 µM	0.153	0.265	0.531	0.608	0.914

CCOc1cc2ncc(C#N)c(Nc3ccc(OCc4ccccn4)c(Cl)c3)c2cc1NC(=O)/C=C/CN(C)C [Neratinib]
relative viability
Settings	A204	MES-SA	SK-ES-1	SW982	VA-ES-BJ
0.00017 µM	1.09	0.903	1.05	1.06	0.999
0.00051 µM	1.09	0.889	1.02	1.07	1.01
0.00152 µM	1.08	0.924	1.04	1.05	1.02
0.00457 µM	1.097	0.913	1.01	1.04	1
0.01372 µM	1.03	0.897	1.01	1.05	0.969
0.04115 µM	1.06	0.869	0.963	1	0.92
0.1235 µM	1.01	0.79	0.797	0.87	0.891
0.3704 µM	0.665	0.517	0.397	0.483	0.734
1.111 µM	0.395	0.348	0.298	0.379	0.503
3.333 µM	0.338	0.282	0.235	0.215	0.483
10 µM	-0.00133	0.0189	0.00187	0.0234	0.46
